Results published in article PMC9516332 (Frontiers in Oncology, 2022).

Columns and labels:
Assay in all cases: Kinase panel profiling at 1 µmol/L (MSA or IMAP), percentage inhibition
Assay type in all cases: biochemical
[1] = biological target: panel of 255 wild-type kinases (Homo sapiens, UniProt P00519); conditions: ABL kinase assay; 1 µmol/L single concentration; read-out: %-inhibition ABL
[2] = biological target: panel of 255 wild-type kinases (Homo sapiens, UniProt P11362); conditions: kinase FGFR1; 1 µmol/L single concentration; read-out: %-inhibition at 1 µmol/L, FGFR1
[3] = biological target: panel of 255 wild-type kinases (Homo sapiens, UniProt P78362); conditions: kinase SRPK2; 1 µmol/L single concentration; read-out: %-inhibition at 1 µmol/L, SRPK2
[4] = biological target: T1, panel of 255 wild-type kinases (Homo sapiens, UniProt Q13188); conditions: MST2; 1 µmol/L single concentration; read-out: %-inhibition, MST2
T1 sequence (Q13188 1-491): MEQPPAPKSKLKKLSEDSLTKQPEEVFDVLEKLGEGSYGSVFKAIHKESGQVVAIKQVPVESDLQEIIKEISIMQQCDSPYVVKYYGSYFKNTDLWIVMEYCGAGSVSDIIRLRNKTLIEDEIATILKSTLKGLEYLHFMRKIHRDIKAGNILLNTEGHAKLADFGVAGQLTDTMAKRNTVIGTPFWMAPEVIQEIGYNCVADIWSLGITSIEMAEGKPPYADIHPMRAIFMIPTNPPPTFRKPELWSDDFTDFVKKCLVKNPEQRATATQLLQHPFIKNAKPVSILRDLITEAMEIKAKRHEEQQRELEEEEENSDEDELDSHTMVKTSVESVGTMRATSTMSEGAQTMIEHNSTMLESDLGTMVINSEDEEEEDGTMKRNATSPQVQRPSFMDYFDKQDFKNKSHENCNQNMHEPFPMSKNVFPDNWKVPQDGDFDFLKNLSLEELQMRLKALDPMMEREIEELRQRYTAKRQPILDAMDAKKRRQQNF

[5] = biological target: T2, panel of 255 wild-type kinases (Homo sapiens, UniProt P53778); conditions: p38γ; 1 µmol/L single concentration; read-out: %-inhibition, p38γ
T2 sequence (P53778 1-367): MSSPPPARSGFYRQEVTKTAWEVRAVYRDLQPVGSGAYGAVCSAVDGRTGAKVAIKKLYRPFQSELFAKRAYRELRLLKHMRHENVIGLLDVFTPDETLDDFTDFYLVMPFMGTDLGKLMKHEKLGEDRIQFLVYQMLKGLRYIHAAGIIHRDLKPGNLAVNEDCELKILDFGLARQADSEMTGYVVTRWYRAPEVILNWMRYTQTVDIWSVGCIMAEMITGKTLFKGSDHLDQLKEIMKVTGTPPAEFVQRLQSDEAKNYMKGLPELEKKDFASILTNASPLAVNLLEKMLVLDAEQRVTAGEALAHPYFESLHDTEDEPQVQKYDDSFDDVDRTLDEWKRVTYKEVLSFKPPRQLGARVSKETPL

[6] = biological target: panel of 255 wild-type kinases (Homo sapiens, UniProt Q9BUB5); conditions: MNK1; 1 µmol/L single concentration; read-out: %-inhibition, MNK1
[7] = biological target: T3, panel of 255 wild-type kinases (Homo sapiens, UniProt P36888); conditions: kinase FLT3; 1 µmol/L single concentration; read-out: %-inhibition at 1 µmol/L, FLT3
T3 sequence (P36888 27-993): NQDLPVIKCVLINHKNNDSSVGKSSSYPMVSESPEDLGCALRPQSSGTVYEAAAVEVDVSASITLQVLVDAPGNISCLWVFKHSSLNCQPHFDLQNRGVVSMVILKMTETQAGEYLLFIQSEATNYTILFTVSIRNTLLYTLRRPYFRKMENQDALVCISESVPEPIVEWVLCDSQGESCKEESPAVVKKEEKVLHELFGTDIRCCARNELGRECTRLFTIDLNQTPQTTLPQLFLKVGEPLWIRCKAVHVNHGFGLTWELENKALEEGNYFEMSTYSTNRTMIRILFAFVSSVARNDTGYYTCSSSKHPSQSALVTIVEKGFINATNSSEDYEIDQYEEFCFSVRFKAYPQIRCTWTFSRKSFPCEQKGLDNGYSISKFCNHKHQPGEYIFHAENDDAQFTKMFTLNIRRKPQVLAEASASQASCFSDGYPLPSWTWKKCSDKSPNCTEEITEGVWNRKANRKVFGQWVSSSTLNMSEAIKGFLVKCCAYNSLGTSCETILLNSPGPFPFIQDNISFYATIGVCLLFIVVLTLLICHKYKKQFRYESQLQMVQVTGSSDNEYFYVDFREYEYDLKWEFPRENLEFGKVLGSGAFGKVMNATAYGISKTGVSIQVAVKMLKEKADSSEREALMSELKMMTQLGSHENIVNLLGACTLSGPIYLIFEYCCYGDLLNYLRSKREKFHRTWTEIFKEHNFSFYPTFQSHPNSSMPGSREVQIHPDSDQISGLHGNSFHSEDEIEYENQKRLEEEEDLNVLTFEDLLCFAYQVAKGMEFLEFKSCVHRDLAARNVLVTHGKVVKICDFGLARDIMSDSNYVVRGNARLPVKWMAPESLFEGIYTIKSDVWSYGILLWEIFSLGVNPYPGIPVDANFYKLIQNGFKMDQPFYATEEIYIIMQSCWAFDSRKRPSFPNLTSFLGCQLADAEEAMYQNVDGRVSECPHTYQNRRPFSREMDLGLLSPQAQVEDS

[8] = biological target: panel of 255 wild-type kinases (Homo sapiens, UniProt O96017); conditions: CHK2 kinase assay; 1 µmol/L single concentration; read-out: %-inhibition CHK2
[9] = biological target: panel of 255 wild-type kinases (Homo sapiens, UniProt Q16512); conditions: kinase PKN1; 1 µmol/L single concentration; read-out: %-inhibition at 1 µmol/L, PKN1
[10] = biological target: panel of 255 wild-type kinases (Homo sapiens, UniProt O75676); conditions: MSK2; 1 µmol/L single concentration; read-out: %-inhibition, MSK2
[11] = biological target: panel of 255 wild-type kinases (Homo sapiens, UniProt Q13464); conditions: kinase ROCK1; 1 µmol/L single concentration; read-out: %-inhibition at 1 µmol/L, ROCK1
[12] = biological target: panel of 255 wild-type kinases (Homo sapiens, UniProt P07333); conditions: kinase FMS; 1 µmol/L single concentration; read-out: %-inhibition at 1 µmol/L, FMS

| SMILES | inhibition at 1 µM [1] [%] | inhibition at 1 µM [2] [%] | inhibition at 1 µM [3] [%] | inhibition at 1 µM [4] [%] | inhibition at 1 µM [5] [%] | inhibition at 1 µM [6] [%] | inhibition at 1 µM [7] [%] | inhibition at 1 µM [8] [%] | inhibition at 1 µM [9] [%] | inhibition at 1 µM [10] [%] | inhibition at 1 µM [11] [%] | inhibition at 1 µM [12] [%] |
| --- | --- | --- | --- | --- | --- | --- | --- | --- | --- | --- | --- | --- |
| C[C@H]1Oc2cc(cnc2N)-c2c(nn(C)c2C#N)CN(C)C(=O)c2ccc(F)cc21 [lorlatinib] | -2.34 | 3.43 | 4 | 8 | -4.48 | 6 | 13 | 41 | 4.68 | -3.24 | 3.64 | 32 |
| FC(F)(F)c1ccc(CNc2ccc(Cc3c[nH]c4ncc(Cl)cc34)cn2)cn1 [pexidartinib] | 0.064 | 45 | -1.19 | 10 | 2.47 | 61 | 55 | 11 | -4.55 | 4.45 | 9 | 95 |
| CCn1c(=O)c(-c2cc(NC(=O)Nc3ccccc3)c(F)cc2Br)cc2cnc(NC)cc21 [ripretinib] | 18 | 92 | -2.82 | 0.11 | 0.893 | 8.51 | 46 | 6 | 10 | 3 | -2.14 | 71 |
| Cn1cnc2c(F)c(Nc3ccc(Br)cc3Cl)c(C(=O)NOCCO)cc21 [selumetinib] | -6.58 | -1.41 | -2.61 | -2.14 | -1.75 | -6.56 | 52 | 4 | 10 | -0.42 | -1.15 | 8.51 |
| Cc1cc(Nc2ncnc3ccc(NC4=NC(C)(C)CO4)cc23)ccc1Oc1ccn2ncnc2c1 [tucatinib] | -3 | -3.24 | -0.581 | -1.17 | -1.75 | -1.41 | 48 | 4 | 18 | 1.24 | -0.767 | 12 |
| C=CC(=O)N1CCC([C@@H]2CCNc3c(C(N)=O)c(-c4ccc(Oc5ccccc5)cc4)nn32)CC1 [zanubrutinib] | -4.52 | 4.53 | -2.35 | 1.56 | 4 | -4.39 | 22 | 4 | -11 | -4 | -1.57 | -7 |

The remaining lines, values ahead:

| inhibition at 1 µM [1] [%] | inhibition at 1 µM [2] [%] | inhibition at 1 µM [3] [%] | inhibition at 1 µM [4] [%] | inhibition at 1 µM [5] [%] | inhibition at 1 µM [6] [%] | inhibition at 1 µM [7] [%] | inhibition at 1 µM [8] [%] | inhibition at 1 µM [9] [%] | inhibition at 1 µM [10] [%] | inhibition at 1 µM [11] [%] | inhibition at 1 µM [12] [%] | SMILES |
| --- | --- | --- | --- | --- | --- | --- | --- | --- | --- | --- | --- | --- |
| -7 | -2 | -3 | 0.182 | 2.3 | -5.37 | 6 | 3.46 | 7 | -3.36 | -5.36 | -4.31 | O=C(Nc1cnn2ccc(N3CCC[C@@H]3c3cc(F)ccc3F)nc12)N1CC[C@H](O)C1 [larotrectinib] |
| 37 | 96 | -2.72 | 5.55 | -1.77 | -4.32 | 101 | 10 | 27 | 3.18 | 3.43 | 94 | CO[C@]1(C(=O)N[C@@H](C)c2ccc(-n3cc(F)cn3)nc2)CC[C@H](c2nc(C)cc(Nc3cc(C)[nH]n3)n2)CC1 [pralsetinib] |
| 16 | 97 | -0.197 | 0.47 | 0.277 | 42 | 99 | 80 | 9 | 5.66 | 3.51 | 79 | COc1ccc(CN2C3CC2CN(c2ccc(-c4cc(OCC(C)(C)O)cn5ncc(C#N)c45)cn2)C3)cn1 [selpercatinib] |
